According to patent publication US20120046357A1, “Benzamide and Napthamide Derivatives Inhibiting Nuclear Factor-Kappa (B) - (NK-kB)” (Profectus Biosciences, Inc., priority 2009, published 2012):
Where a name gives a salt, the structure may show the parent alone.

Columns and labels:
Format in all cases: cell-based
NF-κB = experiment: 293/NFkB-luc reporter cell assay (TNF-α induced luciferase expression); settings: 293 cells; for EC50: pNF-κB-luc reporter, 2 h pretreatment, 20 ng/ml TNF-α 18 h
Protocol: Two reporter cell assays were used to determine the ability of the compound of Example 10 to inhibit NF-κB driven transcription. The first assay was a 293-cell based assay with a stably integrated pNF-κB-luc reporter plasmid containing 3 NF-κB promoter elements. The second assay was a 293-cell based assay with a stably integrated pTRH1-NF-κB-dscGFP reporter containing 4 NF-κB promoter elements. Cells were treated with 0, 0.2, 1, 10, 20 and 40 μM of the compound of Example 10 for 2 hours then were induced with 20 ng/ml TNF-α for 18 hours. Following the induction, luminescence or fluorescence was quantified using a Beckman-Coulter 2300 plate reader. […] These values represent the median value generated from three independent experiments. As a control, 0.5% DMSO treated and untreated cells were compared to verify that the compound of Example 10 had no effect on the expression of luciferase or in the readout of the assay. There was a slight decrease in the output from the assay in the DMSO treated population although it was not statistically significant. As a result of the controls, the decrease in activity in the drug treated samples was compared to the DMSO control sample.

[1] = test system: PGE2 release from RAW264.7 cells; experiment: LPS-stimulated PGE2 release from RAW264.7 cells (immunoassay); settings: Mus musculus, 2 h pretreatment, 1 μg/mL LPS 20-24 h, read-out: RAW 264.7 PGE2 release EC50
Protocol: RAW 264.7 cells were seeded at 4×10^4 cells per well n complete growth medium in 96 well white TC plates with clear bottoms one day prior to the assay. The next day the cells were washed once and 100 μL fresh growth media was added. Cells were pretreated with 0.5 μL from a 6 point 200× dilution series of the test compounds in DMSO for 2 hours. Following pretreatment with the drugs, the inflammatory response was induced by adding 5 μL of a 20 μg/mL solution of LPS (Sigma). The cells were incubated in the presence of the drugs and 1 μg/mL LPS for another 20-24 hours. Typically after treatment the total DMSO was […] of the culture volume and the final concentrations of the compounds were approximately: 40, 20, 10, 1, 0.2 and 0 μM depending on the MW of each compound. Modified dilution series were prepared as needed to get adequate dose response curves without changing the % DMSO. Samples were run in duplicate or triplicate and included DMSO treated control wells with and without LPS stimulation. Drugs with a known activity such as Parthenolide or DHMEQ were run as experimental controls. After 20-24 hours LPS activation, the media supernatant was collected from the cells and replaced with fresh media. The supernatant samples were cleared by centrifugation at 1,000×g for 5 minutes, transferred to fresh storage plates, and stored frozen at −30° C.
After determining the appropriate supernatant dilutions experimentally, PGE2 levels in the supernatants were quantified using Parameter™ PGE2 Immunoassay (R&D Systems) according to the manufacturer's protocol. 100 µL of the supernatants diluted in Calibrator Diluent and 50 μL of a primary monoclonal anti-PGE2 antibody were added to the microplate wells pre-coated with a goat anti-mouse Ig capture antibody. Then 50 μL of an HRP conjugated PGE2 competitor was added. Controls included non-specific binding (NSB) wells containing Calibrator Diluent but no primary antibody and a recombinant PGE2 standard dilution series (40-5000 pg/mL). The plates were incubated at room temperature for 2 hours with shaking and then washed 5 times with 400 μL 1× Wash Buffer. Equal volumes of Color Reagents A and B were mixed and 200 μL of this HRP Substrate Solution was added to each well on the plate. The blue color was allowed to develop for 30 minutes and then the reaction was stopped using 50 μL of Stop Solution yielding a yellow color. Absorbance at 450 nm with a reference at 595 nm was recorded using a […] DTX 880 Multimode Detector.
The concentration of PGE2 in the unknown samples was determined from a curve-fit of the PGE2 standard absorbance data and multiplying by the dilution factor. The maximum activity achieved in the absence of the inhibitor (DMSO+LPS treated wells) was arbitrarily given a value of 100%; likewise the minimum activity in the absence of the stimulant (no LPS treated wells) was assigned a value of 0%. Inhibition of the amount of PGE2 released in the drug treated wells was calculated relative to the maximum activation in the DMSO+LPS treated control wells (i.e., % inhibition=100−(drug+LPS treated)/(DMSO+LPS treated)). Dose response curves were used to determine the effective concentration to inhibit 50% of the PGE2 released (IC50) by means of a SigmaPlot macro which fits a sigmoidal dose-response curve to the (log 10) μM concentration versus inhibition. […] This technique yields an objective value for the IC50 provided that 50% inhibition was approached at the concentrations tested.

[2] = test system: U266B1 multiple myeloma cells; experiment: Multiple myeloma growth inhibition (CellTiter-Glo), U266B1; settings: 48 hours, FIG. 7
Protocol: (§1) Cryogenically stored RPMI 8226 and U266B1 cells (ATCC, Manassas, Va.) were thawed and cultured according to the vendor's recommendations. Cells were plated in 96-well white-wall tissue culture plates at a concentration of 2×10^5 cells/ml (0.1 ml per well) and incubated overnight at 37° C. in a humidified 5% CO2 atmosphere. Compounds were added to each well at the indicated concentrations (0.5 μl of 200×DMSO stock) and incubated with the cells for 48 hours. Cell viability was detected by adding 100 μl CellTiter-Glo Reagent (Promega, Madison, Wis.) to each well, mixing with pipette, and incubating at room temperature for 10 minutes. Luminescence was read with a DTX 880 Multimode Detector (Beckman Coulter, Fullerton, Calif.). Data was analyzed with SigmaPlot 11 (Systat Software, San Jose, Calif.) software.

[3] = test system: RPMI8226 multiple myeloma cells; experiment: Multiple myeloma growth inhibition (CellTiter-Glo), RPMI 8226; settings: 48 hours, FIG. 6
Protocol: as §1

O=C(NC1=CC(=O)C2OC2C1O)c1ccc(C(F)(F)F)cc1O (racemic) [Example 1, 2-hydroxy-N-(2-hydroxy-5-oxo-7-oxabicyclo[4.1.0]hept-3-en-3-yl)-4-(trifluoromethyl)benzamide]
EC50 (NF-κB; 293/NFkB-luc): 36 µM
EC50 [1]: 13.3 µM

O=C(NC1=CC(=O)C2OC2C1O)c1ccc(Cl)cc1O (racemic) [Example 2, (±)-4-chloro-2-hydroxy-N-(2-hydroxy-5-oxo-7-oxabicyclo[4.1.0]hept-3-en-3-yl)benzamide]
EC50 (NF-κB; 293/NFkB-luc): 12 µM
EC50 [1]: 5.9 µM

Cc1ccc(C(=O)NC2=CC(=O)C3OC3C2O)c(O)c1 (racemic) [Example 3, (±)-2-hydroxy-N-(2-hydroxy-5-oxo-7-oxabicyclo[4.1.0]hept-3-en-3-yl)-4-methylbenzamide]
EC50 (NF-κB; 293/NFkB-luc): 20 µM
EC50 [1]: 10 µM

Cc1cccc(C(=O)NC2=CC(=O)C3OC3C2O)c1O (racemic) [Example 4, (±)-2-hydroxy-N-(2-hydroxy-5-oxo-7-oxabicyclo[4.1.0]hept-3-en-3-yl)-3-methylbenzamide]
EC50 (NF-κB; 293/NFkB-luc): 19 µM
EC50 [1]: 2.6 µM

COc1ccc(C(=O)NC2=CC(=O)C3OC3C2O)c(O)c1 (racemic) [Example 5, (±)-2-hydroxy-N-(2-hydroxy-5-oxo-7-oxabicyclo[4.1.0]hept-3-en-3-yl)-4-methoxybenzamide]
EC50 (NF-κB; 293/NFkB-luc): 32 µM
EC50 [1]: 5.7 µM

O=C(NC1=CC(=O)C2OC2C1O)c1cccc(Cl)c1O (racemic) [Example 6, (±)-3-chloro-2-hydroxy-N-(2-hydroxy-5-oxo-7-oxabicyclo[4.1.0]hept-3-en-3-yl)benzamide]
EC50 (NF-κB; 293/NFkB-luc): 37 µM
EC50 [1]: 7.2 µM

O=C(NC1=CC(=O)C2OC2C1O)c1cc2ccccc2cc1O (racemic) [Example 7, (±)-3-hydroxy-N-(2-hydroxy-5-oxo-7-oxabicyclo[4.1.0]hept-3-en-3-yl)-2-naphthamide]
EC50 (NF-κB; 293/NFkB-luc): 21 µM
EC50 [1]: 4.6 µM

O=C(NC1=CC(=O)C2OC2C1O)c1ccc2ccccc2c1O (racemic) [Example 8, (±)-1-hydroxy-N-(2-hydroxy-5-oxo-7-oxabicyclo[4.1.0]hept-3-en-3-yl)-2-naphthamide]
EC50 (NF-κB; 293/NFkB-luc): 7.1 µM

O=C(NC1=CC(=O)C2OC2C1O)c1cc(Br)ccc1O (racemic) [Example 9, (±)-5-bromo-2-hydroxy-N-(2-hydroxy-5-oxo-7-oxabicyclo[4.1.0]hept-3-en-3-yl)benzamide]
EC50 (NF-κB; 293/NFkB-luc): 27 µM

CN(C)c1ccc(C(=O)NC2=CC(=O)C3OC3C2O)c(O)c1 (racemic) [Example 10, (±)-4-(dimethylamino)-2-hydroxy-N-(2-hydroxy-5-oxo-7-oxabicyclo[4.1.0]hept-3-en-3-yl)benzamide]
EC50 (NF-κB; 293/NFkB-luc): 8.7 µM
IC50 (NF-κB; Homo sapiens, HEK293, median of three independent experiments, 20 ng/ml TNF-α, read-out: median IC50, inhibition of expression of the luciferase gene): 8.7 µM
growth inhibition of U266B1 multiple myeloma cells [2]: growth inhibition
growth inhibition of RPMI8226 multiple myeloma cells [3]: growth inhibition

COc1ccc2cc(O)c(C(=O)NC3=CC(=O)C4OC4C3O)cc2c1 (racemic) [Example 11, (±)-3-hydroxy-N-(2-hydroxy-5-oxo-7-oxabicyclo[4.1.0]hept-3-en-3-yl)-7-methoxy-2-naphthamide]
EC50 (NF-κB; 293/NFkB-luc): 7.7 µM

O=C(NC1=CC(=O)C2OC2C1O)c1cc2cc(Br)ccc2cc1O (racemic) [Example 15, (±)-7-bromo-3-hydroxy-N-(2-hydroxy-5-oxo-7-oxabicyclo[4.1.0]hept-3-en-3-yl)-2-naphthamide]
EC50 (NF-κB; 293/NFkB-luc): 8 µM

COc1c(C(=O)NC2=CC(=O)C3OC3C2O)ccc(F)c1F (racemic) [Example 16, (±)-3,4-difluoro-N-(2-hydroxy-5-oxo-7-oxabicyclo[4.1.0]hept-3-en-3-yl)-2-methoxybenzamide]
EC50 (NF-κB; 293/NFkB-luc): 8.7 µM

Cc1ccc(C(C)C)c(C(=O)NC2=CC(=O)C3OC3C2O)c1O (racemic) [Example 17, (±)-2-hydroxy-N-(2-hydroxy-5-oxo-7-oxabicyclo[4.1.0]hept-3-en-3-yl)-6-isopropyl-3-methylbenzamide]
EC50 (NF-κB; 293/NFkB-luc): 3.7 µM

CN(C)c1ccc(C(=O)NC2=CC(=O)C3OC3C2O)c(O)c1 (racemic) [Example 19, (±)-4-(dimethylamino)-2-hydroxy-N-(2-hydroxy-5-oxo-7-oxabicyclo[4.1.0]hept-3-en-3-yl)benzamide trifluoroacetate]
EC50 (NF-κB; trifluoroacetate): 7.5 µM

COc1cc(N(C)C)ccc1C(=O)NC1=CC(=O)C2OC2C1O (racemic) [Example 20, (±)-4-(dimethylamino)-N-(2-hydroxy-5-oxo-7-oxabicyclo[4.1.0]hept-3-en-3-yl)-2-methoxybenzamide]
EC50 (NF-κB; 293/NFkB-luc): 4.6 µM
